{
  "source": "PubChem BioAssay (NCI)",
  "assay_in_all_cases": "growth of human tumour cells (NCI), 48 h",
  "key": {"786-0 renal": {"system": "786-0 renal"}, "A549 NSCLC": {"system": "A549 NSCLC"}, "ACHN renal": {"system": "ACHN renal"}, "BT-549 breast": {"system": "BT-549 breast"}, "CAKI-1 renal": {"system": "CAKI-1 renal"}, "CCRF-CEM leukemia": {"system": "CCRF-CEM leukemia"}, "DU-145 prostate": {"system": "DU-145 prostate"}, "EKVX NSCLC": {"system": "EKVX NSCLC"}, "HCC-2998 colon": {"system": "HCC-2998 colon"}, "HCT-15 colon": {"system": "HCT-15 colon"}, "HL-60(TB) leukemia": {"system": "HL-60(TB) leukemia"}, "HOP-92 NSCLC": {"system": "HOP-92 NSCLC"}, "HS 578T breast": {"system": "HS 578T breast"}, "IGROV1 ovarian": {"system": "IGROV1 ovarian"}, "K-562 leukemia": {"system": "K-562 leukemia"}, "KM12 colon": {"system": "KM12 colon"}, "M14 melanoma": {"system": "M14 melanoma"}, "MCF7 breast": {"system": "MCF7 breast"}, "MDA-MB-231 breast": {"system": "MDA-MB-231 breast"}, "MDA-MB-435": {"system": "MDA-MB-435"}, "MOLT-4 leukemia": {"system": "MOLT-4 leukemia"}, "NCI-H226 lung": {"system": "NCI-H226 lung"}, "NCI-H23 lung": {"system": "NCI-H23 lung"}, "NCI-H460 lung": {"system": "NCI-H460 lung"}, "NCI-H522 lung": {"system": "NCI-H522 lung"}, "NCI/ADR-RES ovarian": {"system": "NCI/ADR-RES ovarian"}, "OVCAR-3 ovarian": {"system": "OVCAR-3 ovarian"}, "OVCAR-5 ovarian": {"system": "OVCAR-5 ovarian"}, "OVCAR-8 ovarian": {"system": "OVCAR-8 ovarian"}, "PC-3 prostate": {"system": "PC-3 prostate"}, "RPMI-8226 leukemia": {"system": "RPMI-8226 leukemia"}, "SF-268 CNS": {"system": "SF-268 CNS"}, "SF-295 CNS": {"system": "SF-295 CNS"}, "SF-539 CNS": {"system": "SF-539 CNS"}, "SK-MEL-2 melanoma": {"system": "SK-MEL-2 melanoma"}, "SK-MEL-5 melanoma": {"system": "SK-MEL-5 melanoma"}, "SN12C renal": {"system": "SN12C renal"}, "SR leukemia": {"system": "SR leukemia"}, "SW-620 colon": {"system": "SW-620 colon"}, "TK-10 renal": {"system": "TK-10 renal"}, "UACC-257 melanoma": {"system": "UACC-257 melanoma"}, "UACC-62 melanoma": {"system": "UACC-62 melanoma"}, "UO-31 renal": {"system": "UO-31 renal"}},
  "note": "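Tested at 5 concentrations; 48 h exposure; 96-well plates; endpoints linearly interpolated, else capped at highest concentration. At the GI50, growth is halved. At the TGI there is no net growth.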",
  "data": [
    {"smiles": "COc1ccc(OC)c(-c2cc(-c3ccccc3)nn2-c2ccc(S(N)(=O)=O)cc2)c1", "values": [
      {"measurement": "GI50", "setting": "786-0 renal", "value": 11.9, "unit": "µM"},
      {"measurement": "TGI", "setting": "786-0 renal", "value": 24.6, "unit": "µM"},
      {"measurement": "GI50", "setting": "A549 NSCLC", "value": 13.1, "unit": "µM"},
      {"measurement": "TGI", "setting": "A549 NSCLC", "value": 42.6, "unit": "µM"},
      {"measurement": "GI50", "setting": "ACHN renal", "value": 8.01, "unit": "µM"},
      {"measurement": "TGI", "setting": "ACHN renal", "value": 19.7, "unit": "µM"},
      {"measurement": "GI50", "setting": "BT-549 breast", "value": 17.7, "unit": "µM"},
      {"measurement": "TGI", "setting": "BT-549 breast", "value": 38.9, "unit": "µM"},
      {"measurement": "GI50", "setting": "CAKI-1 renal", "value": 14.8, "unit": "µM"},
      {"measurement": "TGI", "setting": "CAKI-1 renal", "value": 32.8, "unit": "µM"},
      {"measurement": "GI50", "setting": "CCRF-CEM leukemia", "value": 4.17, "unit": "µM"},
      {"measurement": "TGI", "setting": "CCRF-CEM leukemia", "value": "> 100", "unit": "µM"},
      {"measurement": "GI50", "setting": "DU-145 prostate", "value": 15.6, "unit": "µM"},
      {"measurement": "TGI", "setting": "DU-145 prostate", "value": 29.5, "unit": "µM"},
      {"measurement": "GI50", "setting": "EKVX NSCLC", "value": 18.1, "unit": "µM"},
      {"measurement": "TGI", "setting": "EKVX NSCLC", "value": 39.1, "unit": "µM"},
      {"measurement": "GI50", "setting": "HCC-2998 colon", "value": 23, "unit": "µM"},
      {"measurement": "TGI", "setting": "HCC-2998 colon", "value": 37.9, "unit": "µM"},
      {"measurement": "GI50", "setting": "HCT-15 colon", "value": 5.07, "unit": "µM"},
      {"measurement": "TGI", "setting": "HCT-15 colon", "value": 17.1, "unit": "µM"},
      {"measurement": "GI50", "setting": "HL-60(TB) leukemia", "value": 23.6, "unit": "µM"},
      {"measurement": "TGI", "setting": "HL-60(TB) leukemia", "value": "> 100", "unit": "µM"},
      {"measurement": "GI50", "setting": "HOP-92 NSCLC", "value": 15.5, "unit": "µM"},
      {"measurement": "TGI", "setting": "HOP-92 NSCLC", "value": 50.1, "unit": "µM"},
      {"measurement": "GI50", "setting": "HS 578T breast", "value": 18.9, "unit": "µM"},
      {"measurement": "TGI", "setting": "HS 578T breast", "value": 59.1, "unit": "µM"},
      {"measurement": "GI50", "setting": "IGROV1 ovarian", "value": 23.3, "unit": "µM"},
      {"measurement": "TGI", "setting": "IGROV1 ovarian", "value": "> 100", "unit": "µM"},
      {"measurement": "GI50", "setting": "K-562 leukemia", "value": 2.68, "unit": "µM"},
      {"measurement": "TGI", "setting": "K-562 leukemia", "value": 6.38, "unit": "µM"},
      {"measurement": "GI50", "setting": "KM12 colon", "value": 6.93, "unit": "µM"},
      {"measurement": "TGI", "setting": "KM12 colon", "value": 21.6, "unit": "µM"},
      {"measurement": "GI50", "setting": "M14 melanoma", "value": 5.38, "unit": "µM"},
      {"measurement": "TGI", "setting": "M14 melanoma", "value": 16.6, "unit": "µM"},
      {"measurement": "GI50", "setting": "MCF7 breast", "value": 3.08, "unit": "µM"},
      {"measurement": "TGI", "setting": "MCF7 breast", "value": 16, "unit": "µM"},
      {"measurement": "GI50", "setting": "MDA-MB-231 breast", "value": 11.1, "unit": "µM"},
      {"measurement": "TGI", "setting": "MDA-MB-231 breast", "value": 27, "unit": "µM"},
      {"measurement": "GI50", "setting": "MDA-MB-435", "value": 6.73, "unit": "µM"},
      {"measurement": "TGI", "setting": "MDA-MB-435", "value": 24.8, "unit": "µM"},
      {"measurement": "GI50", "setting": "MOLT-4 leukemia", "value": 6.44, "unit": "µM"},
      {"measurement": "TGI", "setting": "MOLT-4 leukemia", "value": "> 100", "unit": "µM"},
      {"measurement": "GI50", "setting": "NCI-H226 lung", "value": 15, "unit": "µM"},
      {"measurement": "TGI", "setting": "NCI-H226 lung", "value": 33.6, "unit": "µM"},
      {"measurement": "GI50", "setting": "NCI-H23 lung", "value": 15.8, "unit": "µM"},
      {"measurement": "TGI", "setting": "NCI-H23 lung", "value": 30.2, "unit": "µM"},
      {"measurement": "GI50", "setting": "NCI-H460 lung", "value": 11, "unit": "µM"},
      {"measurement": "TGI", "setting": "NCI-H460 lung", "value": 77.3, "unit": "µM"},
      {"measurement": "GI50", "setting": "NCI-H522 lung", "value": 8.04, "unit": "µM"},
      {"measurement": "TGI", "setting": "NCI-H522 lung", "value": 30, "unit": "µM"},
      {"measurement": "GI50", "setting": "NCI/ADR-RES ovarian", "value": 16.2, "unit": "µM"},
      {"measurement": "TGI", "setting": "NCI/ADR-RES ovarian", "value": 31.8, "unit": "µM"},
      {"measurement": "GI50", "setting": "OVCAR-3 ovarian", "value": 5.91, "unit": "µM"},
      {"measurement": "TGI", "setting": "OVCAR-3 ovarian", "value": 19, "unit": "µM"},
      {"measurement": "GI50", "setting": "OVCAR-5 ovarian", "value": 15, "unit": "µM"},
      {"measurement": "TGI", "setting": "OVCAR-5 ovarian", "value": 28.8, "unit": "µM"},
      {"measurement": "GI50", "setting": "OVCAR-8 ovarian", "value": 10.2, "unit": "µM"},
      {"measurement": "TGI", "setting": "OVCAR-8 ovarian", "value": 27, "unit": "µM"},
      {"measurement": "GI50", "setting": "PC-3 prostate", "value": 12.2, "unit": "µM"},
      {"measurement": "TGI", "setting": "PC-3 prostate", "value": 28, "unit": "µM"},
      {"measurement": "GI50", "setting": "RPMI-8226 leukemia", "value": 1.93, "unit": "µM"},
      {"measurement": "TGI", "setting": "RPMI-8226 leukemia", "value": 4.84, "unit": "µM"},
      {"measurement": "GI50", "setting": "SF-268 CNS", "value": 12.6, "unit": "µM"},
      {"measurement": "TGI", "setting": "SF-268 CNS", "value": 27.5, "unit": "µM"},
      {"measurement": "GI50", "setting": "SF-295 CNS", "value": 13.6, "unit": "µM"},
      {"measurement": "TGI", "setting": "SF-295 CNS", "value": 29.2, "unit": "µM"},
      {"measurement": "GI50", "setting": "SF-539 CNS", "value": 18.7, "unit": "µM"},
      {"measurement": "TGI", "setting": "SF-539 CNS", "value": 36.6, "unit": "µM"},
      {"measurement": "GI50", "setting": "SK-MEL-2 melanoma", "value": 27.5, "unit": "µM"},
      {"measurement": "TGI", "setting": "SK-MEL-2 melanoma", "value": "> 100", "unit": "µM"},
      {"measurement": "GI50", "setting": "SK-MEL-5 melanoma", "value": 16.5, "unit": "µM"},
      {"measurement": "TGI", "setting": "SK-MEL-5 melanoma", "value": 31.3, "unit": "µM"},
      {"measurement": "GI50", "setting": "SN12C renal", "value": 12.5, "unit": "µM"},
      {"measurement": "TGI", "setting": "SN12C renal", "value": 25, "unit": "µM"},
      {"measurement": "GI50", "setting": "SR leukemia", "value": 2.82, "unit": "µM"},
      {"measurement": "TGI", "setting": "SR leukemia", "value": "> 100", "unit": "µM"},
      {"measurement": "GI50", "setting": "SW-620 colon", "value": 12.7, "unit": "µM"},
      {"measurement": "TGI", "setting": "SW-620 colon", "value": 33.4, "unit": "µM"},
      {"measurement": "GI50", "setting": "TK-10 renal", "value": 12.7, "unit": "µM"},
      {"measurement": "TGI", "setting": "TK-10 renal", "value": 26, "unit": "µM"},
      {"measurement": "GI50", "setting": "UACC-257 melanoma", "value": 15.2, "unit": "µM"},
      {"measurement": "TGI", "setting": "UACC-257 melanoma", "value": 31.6, "unit": "µM"},
      {"measurement": "GI50", "setting": "UACC-62 melanoma", "value": 12.1, "unit": "µM"},
      {"measurement": "TGI", "setting": "UACC-62 melanoma", "value": 24.7, "unit": "µM"},
      {"measurement": "GI50", "setting": "UO-31 renal", "value": 17.8, "unit": "µM"},
      {"measurement": "TGI", "setting": "UO-31 renal", "value": 50.4, "unit": "µM"}
    ]}
  ]
}
